Key:
[1] = system: Envelope (E) gene of SARS-CoV-2; assay: Quantitative determination of viral gene expression (real-time PCR of E gene); type: cell-based, severe acute respiratory syndrome coronavirus 2; details: Vero E6 cells pretreated at 15.625 nM and 62.5 nM (experimental groups 2 to 3), m.o.i. 0.01, versus pathological control group
HcoV-229E = assay: MTT cell viability assay of HcoV-229E-infected Vero E6 cells; type: cell-based, human coronavirus 229E
Protocol: Vero E6 cells were divided into 5 groups, including one normal control group, one pathological control group, and three experimental groups (i.e., experimental groups 1 to 3). Each group of the Vero E6 cells was incubated in a respective well of a 96-well culture plate containing 100 μL of E2 medium at 2×10^4 cells/well, followed by cultivation in an incubator (37° C., 5% CO2) for 24 hours. Afterwards, the culture medium in each well was removed, and the cells of the experimental groups 1 to 3 were pretreated with 8-benzoyl-4-methyl-9-phenyl-furo[2,3-h]chromen-2-one (i.e., HP520-2) (Cat. No. STL-513320, Vitas-M Laboratory) respectively at concentrations of 20 nM, 40 nM, and 80 nM, followed by adding 150 μL of the HcoV-229E solution prepared in section 2 of General Experimental Materials. […]
Each group was cultivated in an incubator (37° C., 5% CO2) for 96 hours. […] After cultivation in an incubator (37° C., 5% CO2) for 2 hours, the respective resultant cell culture was added with 150 μL of dimethyl sulfoxide (DMSO), followed by subjecting the mixture thus obtained to determination of absorbance at a wavelength of 590 nm (OD590) by an ELISA reader.
The cell viability rate (%) was calculated using the following Equation (I): […]

SARS-CoV-2 = assay: Viral plaque reduction assay; type: cell-based; details: SARS-CoV-2-infected Vero E6 cells, m.o.i. 0.01, HP520-2, 72 hours, versus pathological control group

Cc1cc(=O)oc2c1ccc1oc(C(=O)c3ccccc3)c(-c3ccccc3)c12 [HP520-2, 8-benzoyl-4-methyl-9-phenyl-furo[2,3-h]chromen-2-one]
relative RNA expression level of E gene of SARS-CoV-2 [1]: significantly lower than that of the pathological control group
EC50 (HcoV-229E; Human coronavirus 229E, Vero C1008, Vero E6 cells, HcoV-229E, 96 hours, MTT, n=3, mean±SD): 39 ± 15 nM
cell viability rate (HcoV-229E; Vero E6 cells pretreated at 20 nM, 40 nM, 80 nM, versus pathological control group, FIG. 1): significantly higher than that determined in the pathological control group
number of viral plaques (SARS-CoV-2): lower than that determined in the pathological control group

From patent US20220087974A1, “METHOD AGAINST CORONAVIRUS INFECTION WITH COUMARIN-DERIVED COMPOUND” (CHANG GUNG UNIVERSITY, priority 2020, published 2022)
